# Calls of active or inactive are those of the source. The rule behind the calls is not given here.
# Molecular target: T1, Alpha glucosidase (Homo sapiens, UniProt O43451+P10253+P14410+Q2M2H8)
# Assay: Inhibition of alpha-glucosidase (unknown origin) using PNP-G as substrate measured for 15 mins by spectrophotometry
# Type: protein assay
# Conditions: not given
row,SMILES,IC50
1,CC(C)=CCC/C(C)=C/COc1cc2oc3ccc(O)cc3c(=O)c2c(O)c1CC=C(C)C,28.4 µM
2,CC(C)=CCCC(C)(O)C1Cc2c(c(CC=C(C)C)c(O)c3c(=O)c4cc(O)ccc4oc23)O1 (configuration not stated),16.1 µM
3,CC(C)=CCC/C(C)=C/COc1ccc2oc3cc(O)cc(O)c3c(=O)c2c1,20.6 µM
4,COc1c(O)ccc2c(=O)c3c(O)cc4c(c3oc12)C(C)(C)C(CO)O4 (configuration not stated),72.7 µM
5,C=C(CCC=C(C)C)C(O)Cc1c(O)c(CC=C(C)C)c(O)c2c(=O)c3cc(O)ccc3oc12 (configuration not stated),10.1 µM
6,CC(C)=CCc1c(O)c(CC=C(C)C)c2oc3ccc(O)cc3c(=O)c2c1O,25.5 µM
7,C=C(C)C(O)Cc1c(O)c(C/C=C(\C)CCC=C(C)C)c2oc3ccc(O)cc3c(=O)c2c1O (configuration not stated),4.8 µM
8,CC(C)=CCC/C(C)=C/Cc1c(O)c(CC=C(C)C)c(O)c2c(=O)c3cc(O)ccc3oc12 [COCHINCHINONE A],17.4 µM
9,COc1c(O)cc2oc3cc(O)c(CC=C(C)C)c(O)c3c(=O)c2c1CC=C(C)C [MANGOSTIN],5.7 µM
10,C=C(C)C(O)CC/C(C)=C/COc1ccc2oc3cc(O)cc(O)c3c(=O)c2c1 (configuration not stated),13.7 µM
11,CC(C)=CCc1c(O)cc2oc3cc(O)c(O)c(CC=C(C)C)c3c(=O)c2c1O,1.7 µM
12,COc1c(O)cc2oc3cc(O)c(CCC(C)(C)O)c(O)c3c(=O)c2c1CC=C(C)C,30.7 µM

# Molecular target: T1, Alpha glucosidase
# Assay: Inhibition of alpha-glucosidase (unknown origin) using PNP-G as substrate by Dixon plot analysis
# Type: protein assay
# Conditions: not given
row,SMILES,Ki
1,CC(C)=CCC/C(C)=C/COc1cc2oc3ccc(O)cc3c(=O)c2c(O)c1CC=C(C)C,27.2 µM
2,CC(C)=CCCC(C)(O)C1Cc2c(c(CC=C(C)C)c(O)c3c(=O)c4cc(O)ccc4oc23)O1 (configuration not stated),9.9 µM
3,CC(C)=CCC/C(C)=C/COc1ccc2oc3cc(O)cc(O)c3c(=O)c2c1,17.7 µM
4,COc1c(O)ccc2c(=O)c3c(O)cc4c(c3oc12)C(C)(C)C(CO)O4 (configuration not stated),33.9 µM
5,C=C(CCC=C(C)C)C(O)Cc1c(O)c(CC=C(C)C)c(O)c2c(=O)c3cc(O)ccc3oc12 (configuration not stated),8.2 µM
6,CC(C)=CCc1c(O)c(CC=C(C)C)c2oc3ccc(O)cc3c(=O)c2c1O,19.2 µM
7,C=C(C)C(O)Cc1c(O)c(C/C=C(\C)CCC=C(C)C)c2oc3ccc(O)cc3c(=O)c2c1O (configuration not stated),4.2 µM
8,CC(C)=CCC/C(C)=C/Cc1c(O)c(CC=C(C)C)c(O)c2c(=O)c3cc(O)ccc3oc12 [COCHINCHINONE A],13.4 µM
9,COc1c(O)cc2oc3cc(O)c(CC=C(C)C)c(O)c3c(=O)c2c1CC=C(C)C [MANGOSTIN],7.3 µM
10,C=C(C)C(O)CC/C(C)=C/COc1ccc2oc3cc(O)cc(O)c3c(=O)c2c1 (configuration not stated),13 µM
11,CC(C)=CCc1c(O)cc2oc3cc(O)c(O)c(CC=C(C)C)c3c(=O)c2c1O,1.4 µM
12,COc1c(O)cc2oc3cc(O)c(CCC(C)(C)O)c(O)c3c(=O)c2c1CC=C(C)C,25.1 µM

# Molecular target: T2, Tyrosine-protein phosphatase non-receptor type 1 (Homo sapiens, UniProt P18031)
# T2 sequence (P18031 whole entry): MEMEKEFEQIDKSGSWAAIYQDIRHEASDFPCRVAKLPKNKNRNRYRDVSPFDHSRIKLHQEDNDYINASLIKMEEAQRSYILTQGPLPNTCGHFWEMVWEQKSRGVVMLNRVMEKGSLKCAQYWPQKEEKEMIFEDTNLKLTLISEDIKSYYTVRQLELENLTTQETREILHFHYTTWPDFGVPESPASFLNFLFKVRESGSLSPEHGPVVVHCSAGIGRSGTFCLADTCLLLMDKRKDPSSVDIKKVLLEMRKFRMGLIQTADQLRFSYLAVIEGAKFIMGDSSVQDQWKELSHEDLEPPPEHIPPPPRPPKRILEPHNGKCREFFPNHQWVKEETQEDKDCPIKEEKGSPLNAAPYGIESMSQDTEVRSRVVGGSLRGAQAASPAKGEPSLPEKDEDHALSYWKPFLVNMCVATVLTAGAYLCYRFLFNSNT
# Assay: Inhibition of recombinant human PTP1B (1 to 322 residues) expressed in Escherichia coli using P-NPP as substrate after 10 mins by spectrophotometry
# Conditions: not given
row,SMILES,IC50
1,CC(C)=CCC/C(C)=C/COc1cc2oc3ccc(O)cc3c(=O)c2c(O)c1CC=C(C)C,7.05 µM
2,CC(C)=CCCC(C)(O)C1Cc2c(c(CC=C(C)C)c(O)c3c(=O)c4cc(O)ccc4oc23)O1 (configuration not stated),7.2 µM
3,CC(C)=CCC/C(C)=C/COc1ccc2oc3cc(O)cc(O)c3c(=O)c2c1,35.1 µM
4,COc1c(O)ccc2c(=O)c3c(O)cc4c(c3oc12)C(C)(C)C(CO)O4 (configuration not stated),52.5 µM
5,C=C(CCC=C(C)C)C(O)Cc1c(O)c(CC=C(C)C)c(O)c2c(=O)c3cc(O)ccc3oc12 (configuration not stated),12.5 µM
6,CC(C)=CCc1c(O)c(CC=C(C)C)c2oc3ccc(O)cc3c(=O)c2c1O,10.5 µM
7,C=C(C)C(O)Cc1c(O)c(C/C=C(\C)CCC=C(C)C)c2oc3ccc(O)cc3c(=O)c2c1O (configuration not stated),2.4 µM
8,CC(C)=CCC/C(C)=C/Cc1c(O)c(CC=C(C)C)c(O)c2c(=O)c3cc(O)ccc3oc12 [COCHINCHINONE A],5.2 µM
9,COc1c(O)cc2oc3cc(O)c(CC=C(C)C)c(O)c3c(=O)c2c1CC=C(C)C [MANGOSTIN],5.5 µM
10,C=C(C)C(O)CC/C(C)=C/COc1ccc2oc3cc(O)cc(O)c3c(=O)c2c1 (configuration not stated),25.2 µM
11,CC(C)=CCc1c(O)cc2oc3cc(O)c(O)c(CC=C(C)C)c3c(=O)c2c1O,2.8 µM
12,COc1c(O)cc2oc3cc(O)c(CCC(C)(C)O)c(O)c3c(=O)c2c1CC=C(C)C,24.1 µM

# Molecular target: T2, Tyrosine-protein phosphatase non-receptor type 1
# Assay: Inhibition of recombinant human PTP1B (1 to 322 residues) expressed in Escherichia coli using P-NPP as substrate after 10 mins by Dixon plot analysis
# Conditions: not given
row,SMILES,Ki
1,CC(C)=CCC/C(C)=C/COc1cc2oc3ccc(O)cc3c(=O)c2c(O)c1CC=C(C)C,5.1 µM
2,CC(C)=CCCC(C)(O)C1Cc2c(c(CC=C(C)C)c(O)c3c(=O)c4cc(O)ccc4oc23)O1 (configuration not stated),3.4 µM
3,CC(C)=CCC/C(C)=C/COc1ccc2oc3cc(O)cc(O)c3c(=O)c2c1,19.9 µM
4,COc1c(O)ccc2c(=O)c3c(O)cc4c(c3oc12)C(C)(C)C(CO)O4 (configuration not stated),32.7 µM
5,C=C(CCC=C(C)C)C(O)Cc1c(O)c(CC=C(C)C)c(O)c2c(=O)c3cc(O)ccc3oc12 (configuration not stated),8.9 µM
6,CC(C)=CCc1c(O)c(CC=C(C)C)c2oc3ccc(O)cc3c(=O)c2c1O,11.1 µM
7,C=C(C)C(O)Cc1c(O)c(C/C=C(\C)CCC=C(C)C)c2oc3ccc(O)cc3c(=O)c2c1O (configuration not stated),2.1 to 2.4 µM
8,CC(C)=CCC/C(C)=C/Cc1c(O)c(CC=C(C)C)c(O)c2c(=O)c3cc(O)ccc3oc12 [COCHINCHINONE A],3.1 µM
9,COc1c(O)cc2oc3cc(O)c(CC=C(C)C)c(O)c3c(=O)c2c1CC=C(C)C [MANGOSTIN],3.2 µM
10,C=C(C)C(O)CC/C(C)=C/COc1ccc2oc3cc(O)cc(O)c3c(=O)c2c1 (configuration not stated),29.5 µM
11,CC(C)=CCc1c(O)cc2oc3cc(O)c(O)c(CC=C(C)C)c3c(=O)c2c1O,2.7 µM
12,COc1c(O)cc2oc3cc(O)c(CCC(C)(C)O)c(O)c3c(=O)c2c1CC=C(C)C,22.9 µM

# Molecular target: T2, Tyrosine-protein phosphatase non-receptor type 1
# Assay: Time dependent inhibition of recombinant human PTP1B (1 to 322 residues) expressed in Escherichia coli using P-NPP as substrate preincubated with enzyme for 30 mins by UV-spectrophotometric method
# Conditions: read-out: Ki(app)
row,SMILES,Ki
1,C=C(C)C(O)Cc1c(O)c(C/C=C(\C)CCC=C(C)C)c2oc3ccc(O)cc3c(=O)c2c1O (configuration not stated),2.4 µM

# Molecular target: T1, Alpha glucosidase
# Assay: Mixed type inhibition of alpha-glucosidase (unknown origin) using PNP-G as substrate by Lineweaver-Burk plot analysis
# Type: protein assay
# Conditions: not given
SMILES,Mixed-type inhibition (qualitative),inhibition
CC(C)=CCC/C(C)=C/COc1cc2oc3ccc(O)cc3c(=O)c2c(O)c1CC=C(C)C,Active,–
CC(C)=CCCC(C)(O)C1Cc2c(c(CC=C(C)C)c(O)c3c(=O)c4cc(O)ccc4oc23)O1 (configuration not stated),Active,–
CC(C)=CCC/C(C)=C/COc1ccc2oc3cc(O)cc(O)c3c(=O)c2c1,Active,–
COc1c(O)ccc2c(=O)c3c(O)cc4c(c3oc12)C(C)(C)C(CO)O4 (configuration not stated),Active,–
C=C(CCC=C(C)C)C(O)Cc1c(O)c(CC=C(C)C)c(O)c2c(=O)c3cc(O)ccc3oc12 (configuration not stated),Active,–
CC(C)=CCc1c(O)c(CC=C(C)C)c2oc3ccc(O)cc3c(=O)c2c1O,Active,–
C=C(C)C(O)Cc1c(O)c(C/C=C(\C)CCC=C(C)C)c2oc3ccc(O)cc3c(=O)c2c1O (configuration not stated),Active,–
CC(C)=CCC/C(C)=C/Cc1c(O)c(CC=C(C)C)c(O)c2c(=O)c3cc(O)ccc3oc12 [COCHINCHINONE A],Active,–
COc1c(O)cc2oc3cc(O)c(CC=C(C)C)c(O)c3c(=O)c2c1CC=C(C)C [MANGOSTIN],Active,–
C=C(C)C(O)CC/C(C)=C/COc1ccc2oc3cc(O)cc(O)c3c(=O)c2c1 (configuration not stated),Active,–
CC(C)=CCc1c(O)cc2oc3cc(O)c(O)c(CC=C(C)C)c3c(=O)c2c1O,–,Active
COc1c(O)cc2oc3cc(O)c(CCC(C)(C)O)c(O)c3c(=O)c2c1CC=C(C)C,Active,–

# Molecular target: T3, Tyrosine-protein phosphatase non-receptor type 1 (Homo sapiens) (UniProt P18031)
# T3 sequence (whole entry): T2 sequence (P18031 whole entry)
# Assay: Competitive inhibition of recombinant human PTP1B (1 to 322 residues) expressed in Escherichia coli using P-NPP as substrate after 10 mins by Lineweaver-Burk plot analysis
# Conditions: not given
row,SMILES,inhibition type (Lineweaver-Burk)
1,CC(C)=CCC/C(C)=C/COc1cc2oc3ccc(O)cc3c(=O)c2c(O)c1CC=C(C)C,Active
2,CC(C)=CCCC(C)(O)C1Cc2c(c(CC=C(C)C)c(O)c3c(=O)c4cc(O)ccc4oc23)O1 (configuration not stated),Active
3,CC(C)=CCC/C(C)=C/COc1ccc2oc3cc(O)cc(O)c3c(=O)c2c1,Active
4,COc1c(O)ccc2c(=O)c3c(O)cc4c(c3oc12)C(C)(C)C(CO)O4 (configuration not stated),Active
5,C=C(CCC=C(C)C)C(O)Cc1c(O)c(CC=C(C)C)c(O)c2c(=O)c3cc(O)ccc3oc12 (configuration not stated),Active
6,CC(C)=CCc1c(O)c(CC=C(C)C)c2oc3ccc(O)cc3c(=O)c2c1O,Active
7,C=C(C)C(O)Cc1c(O)c(C/C=C(\C)CCC=C(C)C)c2oc3ccc(O)cc3c(=O)c2c1O (configuration not stated),Active
8,CC(C)=CCC/C(C)=C/Cc1c(O)c(CC=C(C)C)c(O)c2c(=O)c3cc(O)ccc3oc12 [COCHINCHINONE A],Active
9,COc1c(O)cc2oc3cc(O)c(CC=C(C)C)c(O)c3c(=O)c2c1CC=C(C)C [MANGOSTIN],Active
10,C=C(C)C(O)CC/C(C)=C/COc1ccc2oc3cc(O)cc(O)c3c(=O)c2c1 (configuration not stated),Active
11,CC(C)=CCc1c(O)cc2oc3cc(O)c(O)c(CC=C(C)C)c3c(=O)c2c1O,Active
12,COc1c(O)cc2oc3cc(O)c(CCC(C)(C)O)c(O)c3c(=O)c2c1CC=C(C)C,Active

# Molecular target: T3, Tyrosine-protein phosphatase non-receptor type 1 (Homo sapiens)
# Assay: Inhibition of recombinant human PTP1B (1 to 322 residues) expressed in Escherichia coli assessed as forward rate constant for enzyme-inhibitor bound conformation using P-NPP as substrate incubated with enzyme for 30 mins by UV-spectrophotometric method
# Conditions: not given
row,SMILES,K
1,C=C(C)C(O)Cc1c(O)c(C/C=C(\C)CCC=C(C)C)c2oc3ccc(O)cc3c(=O)c2c1O (configuration not stated),50000 M⁻¹ s⁻¹

# Molecular target: T1, Alpha glucosidase
# Assay: Mixed type inhibition of alpha-glucosidase (unknown origin) assessed as enzyme-substrate-inhibitor complex formation using PNP-G as substrate by Lineweaver-Burk plot analysis
# Type: protein assay
# Conditions: not given
row,SMILES,Ki
1,C=C(C)C(O)Cc1c(O)c(C/C=C(\C)CCC=C(C)C)c2oc3ccc(O)cc3c(=O)c2c1O (configuration not stated),6.6 µM

# Molecular target: T1, Alpha glucosidase
# Assay: Reversible inhibition of alpha-glucosidase (unknown origin) using PNP-G as substrate measured for 15 mins by spectrophotometry
# Type: protein assay
# Conditions: not given
row,SMILES,inhibition
1,C=C(C)C(O)Cc1c(O)c(C/C=C(\C)CCC=C(C)C)c2oc3ccc(O)cc3c(=O)c2c1O (configuration not stated),Active

# Molecular target: T3, Tyrosine-protein phosphatase non-receptor type 1 (Homo sapiens)
# Assay: Reversible inhibition of recombinant human PTP1B (1 to 322 residues) expressed in Escherichia coli using P-NPP as substrate after 10 mins by spectrophotometry
# Conditions: not given
row,SMILES,inhibition
1,C=C(C)C(O)Cc1c(O)c(C/C=C(\C)CCC=C(C)C)c2oc3ccc(O)cc3c(=O)c2c1O (configuration not stated),Active

# Reference: ChEMBL document CHEMBL4184201, “Inhibition of protein tyrosine phosphatase 1B (PTP1B) and α-glucosidase by xanthones from Cratoxylum cochinchinense, and their kinetic characterization” (Bioorg Med Chem, 2018)
